The supplement of paper PMC10307832

Key:
Assay in all cases: relative viability (nuclei count vs DMSO), 5 days (fraction); higher = more cells survive
[1] = compound: C1CCC(CC1)N(CCNCCC2=C3C(=C(C=C2)O)NC(=O)CO3)C(=O)CCNCCC4=CC(=C(C=C4)Cl)Cl [AZ505] + COc1cc2c(Oc3ccc(NC(=O)C4(C(=O)Nc5ccc(F)cc5)CC4)cc3F)ccnc2cc1OCCCN1CCOCC1 [Foretinib] (partner 0.25 µM)
In short: (§1)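 Five library-drug doses in √10 steps were combined with a fixed anchor-drug dose, or a single drug was given alone, by pin tool to lung cancer cell lines in 1536-well plates the day after seeding. Nuclei were stained and counted after 5 days. Relative viability is the nuclei count in treated wells over that in vehicle wells, taken as the median of duplicate plates.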

[2] = compound: Cn1c(=O)n(-c2ccc(C(C)(C)C#N)cc2)c2c3cc(-c4cnc5ccccc5c4)ccc3ncc21 [Dactolisib] + CC(=O)Nc1cccc(-n2c(=O)n(C3CC3)c(=O)c3c(Nc4ccc(I)cc4F)n(C)c(=O)c(C)c32)c1 [Trametinib] (partner 0.02 µM)
In short: as §1

[3] = compound: C1CCC(CC1)N(CCNCCC2=C3C(=C(C=C2)O)NC(=O)CO3)C(=O)CCNCCC4=CC(=C(C=C4)Cl)Cl [AZ505] + O=C(CCCCCCC(=O)Nc1ccccc1)NO [Vorinostat] (partner 1 µM)
In short: as §1

[4] = compound: Cn1c(=O)n(-c2ccc(C(C)(C)C#N)cc2)c2c3cc(-c4cnc5ccccc5c4)ccc3ncc21 [Dactolisib] + CC1(C)CCC(c2ccc(Cl)cc2)=C(CN2CCN(c3ccc(C(=O)NS(=O)(=O)c4ccc(N[C@H](CCN5CCOCC5)CSc5ccccc5)c(S(=O)(=O)C(F)(F)F)c4)cc3)CC2)C1 [Navitoclax] (partner 0.5 µM)
In short: as §1

| Cell Line | relative viability ([1]; first compound 0.08 µM) | relative viability ([1]; first compound 0.253 µM) | relative viability ([1]; first compound 0.8 µM) | relative viability ([1]; first compound 2.53 µM) | relative viability ([1]; first compound 8 µM) | relative viability ([2]; first compound 0.002 µM) | relative viability ([2]; first compound 0.006325 µM) | relative viability ([2]; first compound 0.02 µM) | relative viability ([2]; first compound 0.06325 µM) | relative viability ([2]; first compound 0.2 µM) | relative viability ([3]; first compound 0.08 µM) | relative viability ([3]; first compound 0.253 µM) | relative viability ([3]; first compound 0.8 µM) | relative viability ([3]; first compound 2.53 µM) | relative viability ([3]; first compound 8 µM) | relative viability ([4]; first compound 0.002 µM) | relative viability ([4]; first compound 0.006325 µM) | relative viability ([4]; first compound 0.02 µM) | relative viability ([4]; first compound 0.06325 µM) | relative viability ([4]; first compound 0.2 µM) |
| --- | --- | --- | --- | --- | --- | --- | --- | --- | --- | --- | --- | --- | --- | --- | --- | --- | --- | --- | --- | --- |
| 201T | 1.01 | 1.14 | 1.07 | 1.06 | 1.19 | 0.73 | 0.713 | 0.688 | 0.668 | 0.449 | 0.877 | 0.998 | 0.903 | 0.907 | 0.976 | 1.18 | 1.22 | 1.14 | 1.17 | 0.943 |
| A549 | 0.895 | 1.06 | 0.812 | 1.03 | 1.06 |  |  |  |  |  |  |  |  |  |  | 1.29 | 1.05 | 0.706 | 0.248 | 0.104 |
| A-427 | 1.05 | 1.04 | 0.997 | 1.1 | 1.13 | 0.669 | 0.637 | 0.694 | 0.4 | 0.369 | 0.877 | 0.839 | 0.82 | 0.872 | 0.837 | 0.953 | 0.951 | 0.915 | 0.393 | 0.349 |
| ABC-1 | 0.856 | 1.21 | 0.976 | 1.02 | 0.863 |  |  |  |  |  | 1.07 |  | 0.976 | 1.14 | 1.14 |  |  |  |  |  |
| BEN | 0.612 | 0.644 | 0.693 | 0.675 | 0.833 | 0.925 | 0.952 | 0.959 | 0.61 | 0.411 | 0.494 | 0.603 | 0.54 | 0.592 | 0.591 | 0.114 | 0.0698 | 0.0623 | 0.0651 | 0.0432 |
| CAL-12T | 1.03 | 1.11 | 1.18 | 1.22 | 1.36 | 0.343 | 0.312 | 0.248 | 0.213 | 0.184 | 0.577 | 0.971 | 0.692 | 0.849 | 1.01 | 1.38 | 1.17 | 0.681 | 0.264 | 0.25 |
| COR-L23 | 0.878 | 0.928 | 0.909 | 0.863 | 0.975 | 0.602 | 0.453 | 0.305 | 0.176 | 0.144 | 0.415 | 0.312 | 0.364 | 0.407 | 0.377 | 1.14 | 0.934 | 0.644 | 0.238 | 0.188 |
| COR-L 105 | 0.76 | 1.29 | 0.981 | 0.862 | 0.903 | 0.43 | 0.413 | 0.4 | 0.425 | 0.394 | 0.778 | 0.87 | 0.86 | 0.902 | 0.89 | 0.754 | 0.759 | 1.02 | 0.323 | 0.271 |
| Calu-6 | 0.814 | 0.901 | 0.819 | 0.799 | 0.892 |  |  |  |  |  |  |  |  |  |  | 0.972 | 0.794 | 0.703 | 0.411 | 0.259 |
| ChaGo-K-1 | 0.936 | 1.11 | 0.928 | 0.951 | 0.91 | 0.846 | 0.912 | 0.91 | 0.813 | 0.791 | 0.695 | 0.758 | 0.816 | 0.682 | 0.775 | 0.92 | 1.03 | 0.975 | 1.13 | 0.765 |
| EBC-1 | 0.0937 | 0.0894 | 0.0949 | 0.0895 | 0.121 |  |  |  |  |  |  |  |  |  |  | 0.408 | 0.417 | 0.212 | 0.173 | 0.145 |
| EKVX | 0.586 | 0.801 | 0.827 | 0.433 | 0.75 | 0.368 | 0.377 | 0.258 | 0.229 | 0.213 | 0.66 | 0.766 | 0.687 | 0.548 | 0.899 | 0.961 | 0.98 | 0.815 | 0.782 | 0.346 |
| EMC-BAC-2 | 0.95 | 0.99 | 0.993 | 0.985 | 0.961 | 0.897 | 0.866 | 0.839 | 0.461 | 0.375 | 0.486 |  | 0.512 | 0.547 | 0.722 | 1.19 | 1.13 | 1.11 | 0.867 | 0.642 |
| EPLC-272H |  | 0.704 | 0.635 | 0.569 | 0.698 | 0.264 | 0.261 | 0.28 | 0.245 | 0.201 | 0.443 | 0.516 | 0.413 | 0.52 | 0.398 | 1.31 | 1.01 | 0.937 | 0.592 | 0.365 |
| H3255 | 0.81 | 1.05 | 0.924 | 0.872 | 1.19 | 0.657 | 0.58 | 0.507 | 0.539 | 0.455 |  | 0.799 | 0.796 | 0.84 | 0.923 | 0.724 | 0.488 | 0.426 | 0.458 | 0.176 |
| HARA | 0.85 | 0.963 | 0.766 | 0.709 | 0.633 | 0.872 | 0.549 | 0.732 | 0.259 | 0.218 | 0.547 | 0.522 | 0.457 | 0.471 | 0.541 | 1.2 | 1.13 | 1.18 | 1.13 | 0.404 |
| HCC-15 | 0.911 | 1.04 | 1.03 | 1.02 | 1.02 | 0.383 | 0.346 | 0.365 | 0.215 | 0.162 | 0.844 | 0.817 | 0.803 | 0.854 | 0.824 | 0.767 | 0.646 | 0.673 | 0.475 | 0.322 |
| HCC-44 |  |  |  |  |  | 1.14 | 1.13 | 1.08 | 0.952 | 0.737 | 1.09 | 1.09 | 1.06 | 1.23 | 1.14 | 1.06 | 0.982 | 1 | 0.266 | 0.3 |
